Assay results as given in PMC11207040, “Synthesis and Biological Studies of New Temporin A Analogs Containing Unnatural Amino Acids in Position 7” (Pharmaceutics, 2024).
In brackets after ≈: the same amount, converted by molar mass. Read-outs that look alike come from different tables or passages of the source. Non-standard residues stand in square brackets, D forms with d. Residues, ends and D or L forms follow the SMILES beside them. Orn = NCCC[C@H](N)C(=O)O

Key:
[1] = system: MCF-7 cells; assay: MTT antiproliferative assay, MCF-7; type: cell-based, human; settings: for IC50: MTT, 72 h, read-out: Mean IC50 ± SD, MCF-7; for SI (Selectivity Index), MCF-7: SI = IC50 MCF-12F/IC50 tumor cells
Experimental: (§1) The cell lines BALB 3T3 (mouse embryonic fibroblasts) and MCF-12F (human breast epithelial cells) were used as models for healthy tissue. The MCF-7 and MDA-MB-231 cell lines were used as in vitro models for luminal A- and basal B-type breast cancer, respectively. Cell lines were obtained from the American Type Cultures Collection (ATCC, Manassas, VA, USA). Cells were cultured in Dulbecco modified Eagle’s medium (DMEM) supplemented with 10% fetal bovine serum (FBS), 100 U/mL penicillin, and 0.1 mg/mL streptomycin (Sigma-Aldrich, Schnelldorf, Germany) in an incubator at 37 °C, 5% CO2 and 95% humidity. Plastic flasks 75 cm^2 (Biologix, Lenexa, KS, USA) were used to grow the cells.
(§2) The antiproliferative activity testing was performed on cell cultures using the MTT-dye reduction assay. This assay is based on the metabolism of MTT to insoluble formazan by mitochondrial reductases. The formazan concentration can be determined spectrophotometrically. The measured absorption is an indicator of cell viability. Cell lines (MCF-12F, MCF-7 and MDA-MB-231) were used in the experiments. Cells were plated at a density of 1 × 10^3 cells/100 µL in each well of 96-well microplates and allowed to adhere for 24 h before treatment with test compounds. A concentration range from 4 to 1000 μM was applied for 72 h. The formazan absorption was registered using a microplate reader at λ = 540 nm. Antiproliferative activities were expressed as IC50 values (concentrations required for 50% inhibition of cell growth).

[2] = system: BALB 3T3 clone A31 cells; assay: 3T3 NRU cytotoxicity/phototoxicity test; type: cell-based, mouse
Experimental: as §1
(§3) The cytotoxicity/phototoxicity testing was performed as described by the OECD Guidelines for the Testing of Chemicals, Section 4, Test No. 432: In Vitro 3T3 NRU Phototoxicity Test. BALB 3T3, clone A31 cells were grown in 75 cm^2 tissue culture flasks in DMEM high-glucose (4.5 g/L), 10% FBS, and antibiotics at 37.5 °C, in a humidified atmosphere under 5% CO2. Cells were plated at 1 × 10^4 cells / 100 μL culture medium in each well of 96-well microplates and allowed to adhere for 24 h before treatment with test compounds. Peptides were dissolved in DMSO and diluted with culture medium to working concentrations from 4 to 1000 μM. In phototoxicity tests, 96-well plates were irradiated (+Irr) with a dose of 2.4 J/cm^2 using an artificial solar light simulator Helios-iO (SERIC Ltd., Tokyo, Japan), and the cells were incubated for an additional 24 h. After treatment with a Neutral Red medium, washing, and application of the NR Desorb solution, the absorption was measured on a microplate reader at a wavelength of 540 nm. Cytotoxicity/phototoxicity was expressed as CC50 values (concentrations required for 50% cytotoxicity).

[3] = 3T3 NRU cytotoxicity/phototoxicity test; type: cell-based, mouse; settings: mouse
Experimental: as §1, §3

[4] = system: Bacillus subtilis NBIMCC 3562; type: cell-based
Experimental: (§4) The parent peptide Temporin A and the novel analogs were subjected to tests against model strains Escherichia coli NBIMCC 8785, Bacillus subtilis NBIMCC 3562, Arthrobacter oxydans NBIMCC 9333, Pseudomonas aeruginosa NBIMCC 3700, and Candida albicans NBIMCC 74, for the assessment of their antimicrobial activity. The strains were acquired from the National Bank for Industrial Microorganisms and Cell Cultures (NBIMCC, Bulgaria). The strain E. coli 8785 was cultured in Luria-Bertani broth (LB, HiMedia, Mumbai, India); B. subtilis 3562—in nutrient broth (NB, HiMedia, Mumbai, India); A. oxydans 9333; P. aeruginosa 3700—in meat peptone agar (MPA) medium; and C. albicans 74—in yeast mold (YM) medium. An incubator shaker ES-20/60 (Biosan, Latvia) was used for the cultivation and was set to 30 °C for B. subtilis 3562, A. oxydans 9333, and C. albicans 74; and 37 °C for E. coli 8785 and P. aeruginosa 3700, with a 24 h shaking period at 120 rpm. The microbial cultures were then adjusted to a turbidity of 0.5 McFarland using a Grant-bio DEN-1B densitometer (Grant Instruments, Royston, UK) for further use.
(§5) The minimal inhibitory concentration (MIC) of the peptides was determined using the broth dilution method. Stock solutions of the peptides with a concentration of 10 mg/mL in 10% EtOH/H2O were prepared. Suspensions of the bacteria in the corresponding media were added to 96-well U-shaped bottom polystyrene plates (Deltalab S.L., Spain) and exposed to the peptide in the concentration range from 0 to 320 µg/mL, and a 10% EtOH/H2O control, diluted using the same scheme as the peptides, was also used. The plates were then incubated under aerobic conditions at the corresponding temperature for 24 h. The MIC (µg/mL) was assumed as the lowest concentration of the antimicrobial, where there was visible inhibition of the strain. The absorbance was measured at 630 nm (Microplate reader PKL PPC 142, Paramedical srl, Salerno, Italy). To determine the minimal bactericidal concentration (MBC) and minimal fungicidal concentration (MFC), 10 μL from concentrations greater than or equal to the MIC was placed on the corresponding solid nutrient medium. The Petri dishes were then incubated at 30 or 37 °C for 24 h. All experiments were conducted in a triplicate.

[5] = system: Pseudomonas aeruginosa NBIMCC 3700; type: cell-based; settings: NBIMCC 3700, 24 h
Experimental: as §4, §5

[6] = system: Arthrobacter oxydans NBIMCC 9333; type: cell-based; settings: 24 h
Experimental: as §4, §5

[7] = system: Candida albicans NBIMCC 74; type: cell-based; settings: NBIMCC 74, 24 h
Experimental: as §4, §5

[8] = system: Escherichia coli NBIMCC 8785; type: cell-based; settings: NBIMCC 8785, 24 h
Experimental: as §4, §5

[9] = system: MCF-12F cells; assay: MTT antiproliferative assay, MCF-12F; type: cell-based, human; settings: 72 h, non-tumorigenic cell line, read-out: Mean IC50 ± SD, MCF-12F
Experimental: as §1, §2

[10] = system: MDA-MB-231 cells; assay: MTT antiproliferative assay, MDA-MB-231; type: cell-based, human; settings: for IC50: MTT, 72 h, read-out: Mean IC50 ± SD, MDA-MB-231; for SI (Selectivity Index), MDA-MB-231: SI = IC50 MCF-12F/IC50 tumor cells
Experimental: as §1, §2

[11] = system: Bacillus subtilis NBIMCC 3562; type: cell-based; settings: for Inhibition effect, B. subtilis 3562: zone of peptide over zone of antibiotic x 100; for Inhibition zone, B. subtilis 3562: 20 µL per disc, 24 h
Experimental: as §4
(§6) The disk-diffusion method was used as an additional method, with the aim of determining the percent inhibition of the tested samples against the model strains. Sterile plates with LB/NB/MPA/YM agar medium were inoculated on the surface with 100 μL from each microbial culture and incubated at 30 or 37 °C for 30 min, for the suspension to penetrate the agar. After that, sterile paper discs (HiMedia, Mumbai, India) with a diameter of 6 mm were soaked with 20 µL of the peptide solutions with concentrations of 1.4 mg/mL and 10 mg/mL and placed on the agar surface. Sterile paper discs with 10% EtOH/H2O were used as a negative control, and the corresponding strain antibiotic disks (HiMedia, Mumbai, India)—as a positive control. The incubation of the plate was performed at 30/37 °C for 24 h. The antimicrobial activity was analyzed by measuring the diameter of the inhibition zones in mm. The experiments were conducted in triplicates, and the average values for the percent of inhibition as a correlation between the inhibition zone of the peptides over the inhibition zone of the antibiotic multiplied by 100 were calculated.

[12] = system: Pseudomonas aeruginosa NBIMCC 3700; type: cell-based; settings: for Inhibition effect, P. aeruginosa 3700: zone of peptide over zone of antibiotic x 100; for Inhibition zone, P. aeruginosa 3700: 20 µL per disc, 24 h
Experimental: as §4, §6

[13] = system: Arthrobacter oxydans NBIMCC 9333; type: cell-based; settings: for Inhibition effect, A. oxydans 9333: zone of peptide over zone of antibiotic x 100; for Inhibition zone, A. oxydans 9333: 20 µL per disc, 24 h
Experimental: as §4, §6

[14] = system: Candida albicans NBIMCC 74; type: cell-based; settings: 20 µL per disc, 24 h
Experimental: as §4, §6

[15] = system: Escherichia coli NBIMCC 8785; type: cell-based; settings: 20 µL per disc, 24 h
Experimental: as §4, §6

## CC[C@H](C)[C@H](NC(=O)CNC(=O)[C@H](CO)NC(=O)[C@H](CC(C)C)NC(=O)[C@@H](NC(=O)[C@H](CCCNC(=N)N)NC(=O)CNC(=O)[C@@H](NC(=O)[C@H](CC(C)C)NC(=O)[C@@H]1CCCN1C(=O)[C@H](CC(C)C)NC(=O)[C@@H](N)Cc1ccccc1)[C@@H](C)CC)C(C)C)C(=O)N[C@@H](CC(C)C)C(N)=O [DTA, FLPLIG-R-VLSGIL-NH2, reference compound] (H-FLPLIGRVLSGIL-NH2)
[1]
  IC50: 73.2 ± 3.36 µM
  SI (Selectivity Index), MCF-7: 1.90
[2]
  PIF (photo irritation factor): 1.01
[3]
  CC50: 106 ± 4.18 µM
  CC50 at 24 h: 105 ± 4.88 µM
[4]; NBIMCC 3562, 24 h
  MBC, B. subtilis 3562: 320 µg/mL (≈ 229 µM)
  MIC, B. subtilis 3562: 80 µg/mL (≈ 57.3 µM)
[5]
  MBC, P. aeruginosa 3700: 320 µg/mL (≈ 229 µM)
[6]
  MIC, A. oxydans 9333: 80 µg/mL (≈ 57.3 µM)
[7]
  MIC, C. albicans 74: 320 µg/mL (≈ 229 µM)
[8]
  MIC, E. coli 8785: 320 µg/mL (≈ 229 µM)
[9]
  IC50: 139 ± 8.36 µM
[10]
  IC50: 115 ± 4.04 µM
  SI (Selectivity Index), MDA-MB-231: 1.20

## CC[C@H](C)[C@H](NC(=O)CNC(=O)[C@H](CO)NC(=O)[C@H](CC(C)C)NC(=O)[C@@H](NC(=O)[C@H](CCCN)NC(=O)CNC(=O)[C@@H](NC(=O)[C@H](CC(C)C)NC(=O)[C@@H]1CCCN1C(=O)[C@H](CC(C)C)NC(=O)[C@@H](N)Cc1ccccc1)[C@@H](C)CC)C(C)C)C(=O)N[C@@H](CC(C)C)C(N)=O [DTOrn, FLPLIG-Orn-VLSGIL-NH2] (H-FLPLIG[Orn]VLSGIL-NH2; N-terminus assumed)
[1]
  IC50: 196 ± 3.63 µM
  SI (Selectivity Index), MCF-7: 1.56
[2]; PIF = CC50 −Irr/CC50 +Irr, PIF < 2 = not phototoxic
  PIF (photo irritation factor): 0.98
[3]; cytotoxicity, no irradiation, BALB 3T3 clone A31, Neutral Red uptake, read-out: Mean CC50 ± SD, −Irr
  CC50: 337 ± 7.09 µM
[3]; phototoxicity, irradiated 2.4 J/cm^2, BALB 3T3 clone A31, Neutral Red uptake, read-out: Mean CC50 ± SD, +Irr
  CC50 at 24 h: 345 ± 6.41 µM
[4]; broth dilution, 0 to 320 µg/mL, 24 h, NI = no inhibition monitored
  MIC, B. subtilis 3562: 160 µg/mL (≈ 118 µM)
[4]; plated from concentrations ≥ MIC, 24 h
  MBC, B. subtilis 3562: 320 µg/mL (≈ 236 µM)
[6]; broth dilution, 0 to 320 µg/mL, NI = no inhibition monitored
  MIC, A. oxydans 9333: 160 µg/mL (≈ 118 µM)
[6]; plated from concentrations ≥ MIC
  MBC, A. oxydans 9333: 160 µg/mL (≈ 118 µM)
[11]; 1.4 mg/mL
  Inhibition effect, B. subtilis 3562: 0.0%
[11]; 10 mg/mL
  Inhibition effect, B. subtilis 3562: 32.8%
[11]; peptide 1.4 mg/mL
  Inhibition zone, B. subtilis 3562: 0.0 mm
[11]; peptide 10 mg/mL
  Inhibition zone, B. subtilis 3562: 8.2 ± 0.3 mm
[12]; 1.4 mg/mL
  Inhibition effect, P. aeruginosa 3700: 0.0%
[12]; 10 mg/mL
  Inhibition effect, P. aeruginosa 3700: 70.6%
[12]; peptide 1.4 mg/mL
  Inhibition zone, P. aeruginosa 3700: 0.0 mm
[12]; peptide 10 mg/mL
  Inhibition zone, P. aeruginosa 3700: 11.3 ± 0.6 mm
[13]; 1.4 mg/mL
  Inhibition effect, A. oxydans 9333: 0.0%
[13]; 10 mg/mL
  Inhibition effect, A. oxydans 9333: 43.7%
[13]; peptide 1.4 mg/mL
  Inhibition zone, A. oxydans 9333: 0.0 mm
[13]; peptide 10 mg/mL
  Inhibition zone, A. oxydans 9333: 8.3 ± 0.6 mm
[14]; peptide 1.4 mg/mL
  Inhibition zone, C. albicans 74: 0.0 mm
[14]; peptide 10 mg/mL
  Inhibition zone, C. albicans 74: 0.0 mm
[15]; peptide 1.4 mg/mL
  Inhibition zone, E. coli 8785: 0.0 mm
[15]; peptide 10 mg/mL
  Inhibition zone, E. coli 8785: 0.0 mm
[9]
  IC50: 306 ± 10.8 µM
[10]
  IC50: 303 ± 8.67 µM
  SI (Selectivity Index), MDA-MB-231: 1.01
